Where two headings read alike, the source gives them in different places. Marks after values point to notes of the source that are not given here.
Legend:
[1] = HepG2 cytotoxicity, LDH release assay; details: human, HepG2 cells
Method: (§1) Furthermore, compounds were evaluated against late (stage IV/V) gametocytes from PfNF54 (PfNF54 LGc), with viability detected with PrestoBlue,[15] and orthogonally evaluated for toxicity against a human hepatocellular carcinoma line, HepG2.[16]
(§2) Human hepatocellular liver carcinoma cells (HepG2) were cultivated in vitro in Dulbecco’s Modified Eagle’s Medium (DMEM) supplemented with 10% (v/v) heat inactivated fetal bovine serum and 1% (v/v) penicillin/streptomycin.[14] Cells were detached with trypsin treatment at 80% confluency and were seeded in 96-well plates to adhere for 24 h under 5% CO2, humid (95%) conditions. Cells were subsequently exposed to drug pressure for 24 h and cytotoxicity was then determined using the lactate dehydrogenase (LDH) release assay through the colorimetric detection at 450 nm, as previously outlined.[4],[16]

[2] = system: PfNF54 LGc (stage IV/V gametocytes); experiment: PrestoBlue late-stage gametocyte viability assay; format: cell-based, Plasmodium falciparum; details: for IC50: Plasmodium falciparum, read-out: PfNF54 LGc IC50
Method: Gametocytogenesis was induced on highly synchronized (>95%) asexual ring-stage parasites from PfNF54 at 0.5% parasitemia and 6% hematocrit and thereafter maintained in glucose-deprived media as previously described.[29],[15] After 3 days, the hematocrit was decreased to 4%. Parasites were maintained in complete culture media supplemented with 50 mM N-acetyl-glucosamine 5–10 days post induction to inhibit proliferation of residual asexual blood stages. Gametocyte progression and morphology was also monitored microscopically using Giemsa-stained thin smears.
activity against the sexual stages of P. falciparum was evaluated using the PrestoBlue fluorescence assay as previously described.[4] Activity was measured on PfNF54 stage IV/V gametocytes (2% gametocytemia, 5% hematocrit) previously seeded with compounds (in non-lethal DMSO) for 48 h drug pressure, after which PrestoBlue reagent was added and incubated for 2 h. Fluorescence was detected in the supernatant at 612 nm. Dihydroartemisinin (DHA) was used as a positive drug control.

PfNF54 ABS [3] = experiment: SYBR Green I proliferation assay, asexual blood stages, drug-sensitive NF54; details: Plasmodium falciparum, NF54, 96 h, read-out: Pf ABS IC50 NF54
Method: (§3) P. falciparum asexual parasites were cultured from drug-sensitive NF54 (PfNF54) and multidrug resistant strains PfK1. Parasites were maintained in human erythrocytes (O+, suspended at 5% hematocrit) in RPMI-1640 culture medium (23.81 mM sodium bicarbonate, 0.024 mg/mL gentamycin, 25 mM HEPES pH 7.5, 0.2% D-glucose, 0.2 mM hypoxanthine and Albumax II) under hypoxic conditions (5% CO2, 5% O2 and 90% N2) with moderate shaking (60 rpm) at 37 °C. Cultures were synchronized to >95% in the ring stage with 5% (w/v) D-sorbitol treatment.[28]
(§4) Activity against the asexual stage of P. falciparum was evaluated using the SYBR Green I-based fluorescence assay as previously described.[4],[16] Cellular proliferation was measured on synchronized in vitro PfNF54 ring-stage parasites (1% parasitemia, 2% hematocrit), following drug pressure for 96 h. Chloroquine was used as the positive drug control for complete inhibition of parasite proliferation.

HepG2 cells [4] = system: HepG2 cells; parameters: method as in Stampolaki et al.[5]; details: compound at 20 μM; ref Stampolaki et al.[5]; cited from earlier work
PfNF54 ABS [5] = system: PfNF54 ABS; parameters: method as in Stampolaki et al.[5]; details: drug-sensitive NF54; ref Stampolaki et al.[5]; read-out: Pf ABS IC50 NF54; cited from earlier work
female gametes = experiment: Female gamete inhibition assay; format: cell-based, Plasmodium falciparum; parameters: concentration or dose not given beside the values
Method: Similarly, female gametes were activated as described previously.[31] Monoclonal anti-Pfs antibody conjugated to FITC was used to detect female gametes. Image acquisition was performed using a Zeiss Axio Lab.A1 epifluorescence microscope with a 100/1.4 numerical aperture (NA) oil immersion. Thirty images were captured per sample and analyzed manually.

male gametes (PfNF54) = experiment: Male gamete exflagellation inhibition assay (EIA); format: cell-based; details: Plasmodium falciparum, 48 h, read-out: male gamete inhibition %
Method: The EIA was performed using video microscopy by capturing the movement of exflagellation centers over time as previously described.[4],[30] Mature PfNF54 stage V gametocytes (>95%;) were treated with 2 μM of drug for 48 h before the activation of exflagellation, without removing drug pressure. Movement was semi-automatically quantified from 15 videos of 8–10 s each between 15 and 22.5 min after incubation. Each video was analyzed using ICY-bio image analysis software.

HepG2 cells [6] = system: HepG2 cells
Method: as §1, §2

HepG2 cells [7] = experiment: HepG2 cytotoxicity, LDH release assay; details: Homo sapiens, HepG2, 24 h, read-out: HepG2 EC50
Method: as §1, §2

PfK1 = experiment: SYBR Green I proliferation assay, asexual blood stages, multidrug-resistant K1; details: Plasmodium falciparum, K1, read-out: Pf ABS IC50 K1
Method: as §3, §4

oocyst formation = experiment: Standard membrane feeding assay (SMFA), oocyst formation in Anopheles coluzzii; format: in vivo; details: Plasmodium falciparum
Method: Transmission-blocking activity was confirmed in the standard membrane feeding assay (SMFA), by determining transmission-reducing activity (TRA; reduction in oocyst counts) and transmission-blocking activity (TBA, reduction in oocyst prevalence), 8–10 days after feeding female mosquitoes on gametocyte-infected blood, treated with selected compounds (at 2 μM).
SMFA was performed using glass feeders as is outlined.[4],[16] Once again, mature stage V gametocytes (>95%) were treated with 2 μM of each compound for 48 h prior to feeding. Anopheles coluzzii females were allowed to feed on gametocyte cultures (1.5–2.5% gametocytemia, 50% hematocrit in A+ male serum with fresh erythrocytes) in the dark for 40 min. All unfed or partially fed mosquitoes were removed, and remaining females housed for 8–10 days. Mosquitoes were dissected to remove midguts, and oocysts counted under bright field illumination at ×20–×40 magnification. The percentage of block in transmission (transmission-blocking activity; TBA) and the percentage of reduction in the number of oocysts (transmission-reducing activity; TRA) were calculated after normalizing to the control untreated sample.

[8] = stage IV/V gametocytes, 48 h drug pressure
[9] = 48 h drug treatment at 2 μM, single biological repeat, read-out: oocyst formation (% inhibition) TBA
[10] = 48 h drug treatment at 2 μM, single biological repeat, read-out: oocyst formation (% inhibition) TRA

Compound | viability at 24 h, 20 µM [1] | IC50 [2, 8] | IC50 (PfNF54 ABS [3]) | IC50 (PfK1) | other results
CC(C)=CCC/C(C)=C/COCCNC1C2CC3CC(C2)CC1C3 (stereo not shown) [Compound 15] | 100% | > 10 µM | 2.46 ± 0.14 µM | – | –
CC(C)=CCC/C(C)=C/CNCCOC1C2CC3CC(C2)CC1C3 (stereo not shown) [Compound 16] | 99% | > 10 µM | 3.78 ± 0.75 µM | – | –
CC(C)=CCC/C(C)=C/CNCC(=O)NC1C2CC3CC(C2)CC1C3 (stereo not shown) [Compound 17] | – | > 10 µM | – | – | HepG2 % viability (HepG2 cells [4]): 100%^b; IC50 (PfNF54 ABS [5]): 6.49 ± 0.33 µM
CC(C)=CCC/C(C)=C/CNC(=O)CNC1C2CC3CC(C2)CC1C3 (stereo not shown) [Compound 18] | – | – | – | – | HepG2 % viability (HepG2 cells [4]): 99%^b; IC50 ([2]; 48 h): > 10 µM
CC(C)CCCC(C)CCCC(C)CCNCCNC1C2CC3CC(C2)CC1C3 (stereo not shown) [Compound 20] | – | 0.54 ± 0.04 µM | 0.39 ± 0.15 µM | 0.39 ± 0.01 µM | female gamete inhibition % (female gametes): 77.52 ± 10.85%; inhibition at 2 µM (male gametes (PfNF54); 2 μM): 95 ± 5%; cytotoxicity to HepG2 cells (in words) (HepG2 cells [6]): moderately cytotoxic; EC50 (HepG2 cells [7]): 5.11 ± 0.85 µM; inhibition at 2 µM (oocyst formation; [9]): 54%; inhibition at 2 µM (oocyst formation; [10]): 75%
CC(C)=CCC/C(C)=C/CC/C(C)=C/CNCCNC1C2CC3CC(C2)CC1C3 (stereo not shown) [Compound 21] | 75% | 0.51 ± 0.07 µM | 0.65 µM | 1.82 ± 0.31 µM | female gamete inhibition % (female gametes): 86.30 ± 2.58%; inhibition at 2 µM (male gametes (PfNF54)): 95.5 ± 4.55%; inhibition at 2 µM (oocyst formation; 48 h, read-out: oocyst formation (% inhibition) TBA): 20%; inhibition at 2 µM (oocyst formation; 48 h, read-out: oocyst formation (% inhibition) TRA): 56%
c1ccc(CCNCCNC2C3CC4CC(C3)CC2C4)cc1 (stereo not shown) [Compound 22] | 100% | 0.74 ± 0.15 µM | 0.73 ± 0.04 µM | 1.7 ± 0.21 µM | female gamete inhibition % (female gametes): 85.40 ± 7.62%; inhibition at 2 µM (male gametes (PfNF54); 2 μM): 92.1 ± 1.21%; cytotoxicity to HepG2 cells (in words) (HepG2 cells [6]): moderately cytotoxic; inhibition at 2 µM (oocyst formation; [9]): 80%; inhibition at 2 µM (oocyst formation; [10]): 89%; fold loss in gametocyte activity ([2]; LGc, compared to 1): 7 fold
c1ccc(Oc2cccc(CNCCNC3C4CC5CC(C4)CC3C5)c2)cc1 (stereo not shown) [Compound 23] | – | 1.51 ± 0.42 µM | 0.96 ± 0.01 µM | 4.14 ± 1.37 µM | cytotoxicity to HepG2 cells (in words) (HepG2 cells [6]): moderately cytotoxic; EC50 (HepG2 cells [7]): 20 ± 5.69 µM
C1CCC(CCNCCNC2C3CC4CC(C3)CC2C4)CC1 (stereo not shown) [Compound 24] | 27% | > 10 µM | 1.24 ± 0.08 µM | – | –
c1ccc(CNCCNC2C3CC4CC(C3)CC2C4)cc1 (stereo not shown) [Compound 25] | 91% | 0.11 ± 0.06 µM | 3.99 ± 0.28 µM | – | –
CC(C)=CCNCCNC1C2CC3CC(C2)CC1C3 (stereo not shown) [Compound 26] | 99% | 0.37 ± 0.06 µM | 4.28 ± 0.36 µM | – | –

— paper PMC11406516, “The Tuberculosis Drug Candidate SQ109 and Its Analogs Have Multistage Activity against Plasmodium falciparum” (ACS Infectious Diseases, 2024)
